Measured values from ChEMBL document CHEMBL5030557, “Tandem Repeat of a Short Human Chemerin-Derived Peptide and Its Nontoxic d-Lysine-Containing Enantiomer Display Broad-Spectrum Antimicrobial and Antitubercular Activities” (J Med Chem, 2021).
In brackets after ≈: the same amount, converted by molar mass. Activity calls are given as the source filed them. The rule behind the calls is not given here. Where a SMILES comes first, the peptide text is derived from it.

How the values were obtained:
Escherichia coli [1] = assay: Antimicrobial activity against Escherichia coli ATCC 25922 assessed as inhibition of bacterial growth by broth dilution method; type: functional
Bacillus subtilis = assay: Antimicrobial activity against Bacillus subtilis ATCC 6633 assessed as inhibition of bacterial growth by broth dilution method; type: functional
Klebsiella pneumoniae = assay: Antimicrobial activity against Klebsiella pneumoniae ATCC 27736 assessed as inhibition of bacterial growth by broth dilution method; type: functional
Pseudomonas aeruginosa [2] = assay: Antimicrobial activity against Pseudomonas aeruginosa ATCC BAA-427 assessed as inhibition of bacterial growth by broth dilution method; type: functional
[3] = Retention time of the compound analysed by RP-HPLC analysis; type: physicochemical
Staphylococcus aureus [4] = assay: Antimicrobial activity against Staphylococcus aureus ATCC 25923 assessed as inhibition of bacterial growth by broth dilution method; type: functional
Staphylococcus aureus [5] = assay: Antimicrobial activity against methicilin- resistant Staphylococcus aureus ATCC 33591 assessed as inhibition of bacterial growth by broth dilution method; type: functional
Staphylococcus aureus [6] = assay: Antimicrobial activity against multidrug-resistant Staphylococcus aureus ATCC BAA-44 assessed as inhibition of bacterial growth by broth dilution method; type: functional
[7] = Hemolytic activity in human RBC measured after 40 mins; type: ADME, tissue-based, Erythrocyte; conditions: red blood cells (RBC)
Escherichia coli [8] = assay: Antibacterial activity against Escherichia coli ATCC 25922 in presence of 10 percent fresh human serum measured after 1 hr; type: functional
Escherichia coli [9] = assay: Antibacterial activity against Escherichia coli ATCC 25922 in presence of 4.5 mM KCl measured after 1 hr; type: functional
Escherichia coli [10] = assay: Antibacterial activity against Escherichia coli ATCC 25922 in presence of 150 mM NaCl measured after 1 hr; type: functional
Escherichia coli [11] = assay: Antibacterial activity against Escherichia coli ATCC 25922 in presence of temperature ranging from 4 to 90 degC measured after 1 hr; type: functional
Cell membrane [12] = assay: Induction of membrane damage in Escherichia coli assessed as disruption of membrane integrity at 10 uM incubated for 30 min by propidium iodide staining based assay
[13] = (§1) Disruption of membrane integrity in human RBC cells assessed as membrane damage at 150 uM incubated for 15 min by Alexa fluor-annexin V staining based assay (reference value: 0%); type: functional, Red blood cell; conditions: 0.25 h
[14] = Stability of the compound in human serum assessed as intact compound remaining at 2 mg/ml measured after 60 mins by […] analysis; type: ADME, cell-free; conditions: read-out: Stability
[15] = Acute toxicity in BALB/c mouse assessed as survival at 30 mg/kg administered intravenously measured after 7 days; type: organism-based; conditions: in vivo, iv, 168 h, time 7 day
[16] = Acute toxicity in BALB/c mouse assessed as survival at 20 mg/kg administered intravenously measured after 7 days; type: organism-based; conditions: in vivo, iv, 168 h, time 7 day
Red blood cell = assay: as §1; type: functional
Cell membrane [17] = assay: Disruption of plasma membrane in Staphylococcus aureus ATCC 25923 at 10 uM by SYTOX-green uptake assay; type: cell membranes; conditions: TDE = time-dependent effect
[18] = Permeability of the compound in PC/PG lipid vesicles by spectrofluorometry; type: ADME
Lipid bilayer = assay: Induction of membrane depolarization in mammalian mimetic PC/Chol vesicles assessed as membrane permeabilization
Pseudomonas aeruginosa [19] = assay: Antibacterial activity against Pseudomonas aeruginosa BAA 427 assessed as resistance development by measuring fold change in MIC after 30 passages with serially diluted peptides; type: functional
Escherichia coli [20] = assay: Bactericidal activity against Escherichia coli ATCC 25922 assessed as bacterial killing at 5 times MIC measured after 60 min; type: functional, organism-based
[21] = tested on: Mycolicibacterium smegmatis; assay: Anti-mycobacterial activity against Mycobacterium smegmatis assessed as growth inhibition at 16.13 uM relative to control; type: functional
[22] = tested on: Mycobacterium tuberculosis; assay: Anti-mycobacterial activity against Mycobacterium tuberculosis H37Ra assessed as growth inhibition at 16.13 uM relative to control; type: functional
[23] = tested on: Mycolicibacterium smegmatis; assay: Anti-mycobacterial activity against Mycobacterium smegmatis infected in human THP-1 cells assessed as reduction in CFU at 24.19 uM after 24 hrs; type: functional
[24] = tested on: Mycolicibacterium smegmatis; assay: Anti-mycobacterial activity against Mycobacterium smegmatis infected in human THP-1 cells assessed as reduction in CFU at 40.13 uM after 24 hrs; type: functional

For CC(C)C[C@H](NC(=O)[C@H](CCCNC(=N)N)NC(=O)CNC(=O)[C@H](CC(C)C)NC(=O)[C@@H](NC(=O)[C@@H](N)CCCCN)C(C)C)C(=O)N[C@H](C(N)=O)C(C)C (H-KVLGRLV-NH2), the MIC (Escherichia coli [1]) was over 100 µM, the MIC (Bacillus subtilis) was over 100 µM and the MIC (Klebsiella pneumoniae) was over 100 µM. It also gave an MIC (Pseudomonas aeruginosa [2]) of over 100 µM, a Retention_time [3] of 8.1 min and an MIC (Staphylococcus aureus [4]) of over 100 µM. For the same molecule, the MIC (Staphylococcus aureus [5]) was over 100 µM and the MIC (Staphylococcus aureus [6]) was over 100 µM.
CC(C)C[C@H](NC(=O)[C@H](CCCNC(=N)N)NC(=O)CNC(=O)[C@H](CC(C)C)NC(=O)[C@@H](NC(=O)[C@@H](CCCCN)NC(=O)[C@@H](NC(=O)[C@H](CC(C)C)NC(=O)[C@H](CCCNC(=N)N)NC(=O)CNC(=O)[C@H](CC(C)C)NC(=O)[C@@H](NC(=O)[C@H](N)CCCCN)C(C)C)C(C)C)C(C)C)C(=O)N[C@H](C(N)=O)C(C)C showed an MIC (Escherichia coli [1]) of 1 µM (≈ 1.55 µg/mL), an MIC (Bacillus subtilis) of 2 µM (≈ 3.1 µg/mL) and an MIC (Klebsiella pneumoniae) of 4 µM (≈ 6.2 µg/mL). For the same molecule, the MIC (Pseudomonas aeruginosa [2]) was 4 µM (≈ 6.2 µg/mL), the Retention_time [3] was 16.5 min and the MIC (Staphylococcus aureus [4]) was 2 µM (≈ 3.1 µg/mL). The MIC (Staphylococcus aureus [5]) was 2 µM (≈ 3.1 µg/mL), the MIC (Staphylococcus aureus [6]) was 2 µM (≈ 3.1 µg/mL) and the HC50 at 40 min [7] was 1.93 mM. It also gave an MIC (Escherichia coli [8]) of 2 µM, an MIC (Escherichia coli [9]) of 2 µM and an MIC (Escherichia coli [10]) of 1 µM. For the same molecule, the MIC (Escherichia coli [11]) was 2 µM, the Activity (Cell membrane [12]) was “Active” and the Activity [13] was 13.9%.
For CC(C)C[C@H](NC(=O)[C@H](CCCNC(=N)N)NC(=O)CNC(=O)[C@H](CC(C)C)NC(=O)[C@@H](NC(=O)[C@H](CCCCN)NC(=O)[C@@H](NC(=O)[C@H](CC(C)C)NC(=O)[C@H](CCCNC(=N)N)NC(=O)CNC(=O)[C@H](CC(C)C)NC(=O)[C@@H](NC(=O)[C@@H](N)CCCCN)C(C)C)C(C)C)C(C)C)C(=O)N[C@H](C(N)=O)C(C)C, the MIC (Escherichia coli [1]) was 1 µM (≈ 1.55 µg/mL), the MIC (Bacillus subtilis) was 2 µM (≈ 3.1 µg/mL) and the MIC (Klebsiella pneumoniae) was 4 µM (≈ 6.2 µg/mL). For the same molecule, the MIC (Pseudomonas aeruginosa [2]) was 4 µM (≈ 6.2 µg/mL), the remaining at 1 h, 2 mg/ml [14] was 51% and the Activity [15] was “Non-Toxic”. The Activity [16] was “Non-Toxic”, the Retention_time [3] was 16 min and the MIC (Staphylococcus aureus [4]) was 2 µM (≈ 3.1 µg/mL). The MIC (Staphylococcus aureus [5]) was 1 µM (≈ 1.55 µg/mL), the MIC (Staphylococcus aureus [6]) was 2 µM (≈ 3.1 µg/mL) and the HC50 at 40 min [7] was 0.429 mM. It also gave an MIC (Escherichia coli [8]) of 2 µM, an MIC (Escherichia coli [9]) of 2 µM and an MIC (Escherichia coli [10]) of 2 µM. For the same molecule, the MIC (Escherichia coli [11]) was 2 µM, the Activity (Cell membrane [12]) was “Active” and the Activity [13] was 96.5%. For the same molecule, the Activity (Red blood cell) was “Active”, the Activity (Cell membrane [17]) was “Tde” and the Activity [18] was “Active”. For the same molecule, the Activity (Lipid bilayer) was “inactive”, the “fold change (FC)” value (Pseudomonas aeruginosa [19]) was 8 and the Activity (Escherichia coli [20]) was “Active”. It also gave an inhibition at 16.13 µM [21] of 80%, an inhibition at 16.13 µM [22] of 80% and an inhibition at 24.19 µM [23] of 20%. The inhibition at 40.13 µM [24] was 40%.
With CN(C)[C@@H]1C(O)=C(C(N)=O)C(=O)[C@@]2(O)C(O)=C3C(=O)c4c(O)cccc4C(C)(O)[C@H]3C[C@@H]12 (some centres not stated) the “fold change (FC)” value (Pseudomonas aeruginosa [19]) was 16.
Molecule CCn1cc(C(=O)O)c(=O)c2cc(F)c(N3CCNCC3)cc21 [NORFLOXACIN] has an MIC (Klebsiella pneumoniae) of 0.15 µM (≈ 0.0479 µg/mL), an MIC (Pseudomonas aeruginosa [2]) of 1.22 µM (≈ 0.39 µg/mL) and an MIC (Staphylococcus aureus [4]) of 1.22 µM (≈ 0.39 µg/mL). The MIC (Staphylococcus aureus [6]) was 2.44 µM (≈ 0.779 µg/mL).
With O=C(O)c1cn(C2CC2)c2cc(N3CCNCC3)c(F)cc2c1=O [CIPROFLOXACIN] the “fold change (FC)” value (Pseudomonas aeruginosa [19]) was 64.
